Values after ≈ are worked out from the molar mass of the structure shown.
Columns and labels:
[1] = test system: Aspergillus niger; assay: Antifungal activity against Aspergillus niger MTCC 281 at 50 ug/ml after 24 hrs by disc diffusion method; format: functional; conditions: MTCC 281, 24 h, read-out: IZ
[2] = test system: Escherichia coli; assay: Antibacterial activity against Escherichia coli MTCC 724 assessed as concentration required to completely destroy test microorganisms after 24 hrs; format: functional; conditions: MTCC 724, 24 h
[3] = biological target: T1, Alpha amylase (Homo sapiens, UniProt P0DUB6); assay: Inhibition of alpha-amylase (unknown origin) using starch as substrate after 30 mins by spectrophotometer analysis
T1 sequence (P0DUB6 whole entry): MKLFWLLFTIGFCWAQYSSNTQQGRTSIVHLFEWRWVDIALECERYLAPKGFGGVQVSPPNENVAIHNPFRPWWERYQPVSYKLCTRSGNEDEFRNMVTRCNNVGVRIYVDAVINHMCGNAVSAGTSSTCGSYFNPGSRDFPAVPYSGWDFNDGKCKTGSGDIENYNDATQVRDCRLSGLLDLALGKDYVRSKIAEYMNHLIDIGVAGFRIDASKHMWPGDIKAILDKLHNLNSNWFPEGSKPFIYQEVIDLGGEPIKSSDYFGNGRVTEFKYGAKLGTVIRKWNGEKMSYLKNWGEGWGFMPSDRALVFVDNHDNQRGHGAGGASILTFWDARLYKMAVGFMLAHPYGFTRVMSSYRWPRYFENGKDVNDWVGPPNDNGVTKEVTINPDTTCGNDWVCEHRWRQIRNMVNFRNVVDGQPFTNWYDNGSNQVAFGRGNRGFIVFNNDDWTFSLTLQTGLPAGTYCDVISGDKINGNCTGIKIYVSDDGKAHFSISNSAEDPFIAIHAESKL

[4] = test system: Klebsiella pneumoniae; assay: Antibacterial activity against Klebsiella pneumoniae MTCC 3384 after 24 hrs by microdilution method; format: functional; conditions: MTCC 3384, 24 h
[5] = test system: Klebsiella pneumoniae; assay: Antibacterial activity against Klebsiella pneumoniae MTCC 3384 at 100 ug/ml after 24 hrs by disc diffusion method; format: functional; conditions: MTCC 3384, 24 h, read-out: IZ
[6] = test system: Klebsiella pneumoniae; assay: Antibacterial activity against Klebsiella pneumoniae MTCC 3384 at 50 ug/ml after 24 hrs by disc diffusion method; format: functional; conditions: MTCC 3384, 24 h, read-out: IZ
[7] = test system: Aspergillus niger; assay: Antifungal activity against Aspergillus niger MTCC 281 at 100 ug/ml after 24 hrs by disc diffusion method; format: functional; conditions: MTCC 281, 24 h, read-out: IZ
[8] = test system: Aspergillus flavus; assay: Antifungal activity against Aspergillus flavus MTCC 873 assessed as concentration required to completely destroy test microorganisms after 24 hrs; format: functional
[9] = test system: Aspergillus niger; assay: Antifungal activity against Aspergillus niger MTCC 281 after 48 hrs by microdilution method; format: functional
[10] = test system: Aspergillus flavus; assay: Antifungal activity against Aspergillus flavus MTCC 873 at 100 ug/ml after 24 hrs by disc diffusion method; format: functional; conditions: for zone of inhibition at 100 µg/mL: MTCC 873, 24 h, read-out: IZ
[11] = test system: Aspergillus niger; assay: Antifungal activity against Aspergillus niger MTCC 281 assessed as concentration required to completely destroy test microorganisms after 24 hrs; format: functional
[12] = test system: Bacillus cereus; assay: Antibacterial activity against Bacillus cereus MTCC 8372 assessed as concentration required to completely destroy test microorganisms after 24 hrs; format: functional; conditions: MTCC 8372, 24 h
[13] = test system: Staphylococcus aureus; assay: Antibacterial activity against Staphylococcus aureus MTCC 96 at 100 ug/ml after 24 hrs by disc diffusion method; format: functional; conditions: MTCC 96, 24 h, read-out: IZ
[14] = test system: Aspergillus flavus; assay: Antifungal activity against Aspergillus flavus MTCC 873 at 50 ug/ml after 24 hrs by disc diffusion method; format: functional; conditions: for zone of inhibition at 50 µg/mL: MTCC 873, 24 h, read-out: IZ
[15] = test system: Staphylococcus aureus; assay: Antibacterial activity against Staphylococcus aureus MTCC 96 at 50 ug/ml after 24 hrs by disc diffusion method; format: functional; conditions: MTCC 96, 24 h, read-out: IZ
[16] = Inhibition of alpha-glucosidase (unknown origin) using p-nitrophenol glycoside as substrate after 30 mins by colorimetric analysis; parameters: species or system Homo sapiens
[17] = test system: Staphylococcus aureus; assay: Antibacterial activity against Staphylococcus aureus MTCC 96 assessed as concentration required to completely destroy test microorganisms after 24 hrs; format: functional; conditions: MTCC 96, 24 h
[18] = test system: Staphylococcus aureus; assay: Antibacterial activity against Staphylococcus aureus MTCC 96 after 24 hrs by microdilution method; format: functional; conditions: MTCC 96, 24 h
[19] = test system: Bacillus cereus; assay: Antibacterial activity against Bacillus cereus MTCC 8372 at 50 ug/ml after 24 hrs by disc diffusion method; format: functional; conditions: MTCC 8372, 24 h, read-out: IZ
[20] = test system: Klebsiella pneumoniae; assay: Antibacterial activity against Klebsiella pneumoniae MTCC 3384 assessed as concentration required to completely destroy test microorganisms after 24 hrs; format: functional; conditions: MTCC 3384, 24 h
[21] = test system: Escherichia coli; assay: Antibacterial activity against Escherichia coli MTCC 724 at 100 ug/ml after 24 hrs by disc diffusion method; format: functional; conditions: MTCC 724, 24 h, read-out: IZ
[22] = test system: Escherichia coli; assay: Antibacterial activity against Escherichia coli MTCC 724 at 50 ug/ml after 24 hrs by disc diffusion method; format: functional; conditions: MTCC 724, 24 h, read-out: IZ
[23] = test system: Bacillus cereus; assay: Antibacterial activity against Bacillus cereus MTCC 8372 at 100 ug/ml after 24 hrs by disc diffusion method; format: functional; conditions: MTCC 8372, 24 h, read-out: IZ
[24] = test system: Bacillus cereus; assay: Antibacterial activity against Bacillus cereus MTCC 8372 after 24 hrs by microdilution method; format: functional; conditions: MTCC 8372, 24 h
[25] = test system: Escherichia coli; assay: Antibacterial activity against Escherichia coli MTCC 724 after 24 hrs by microdilution method; format: functional; conditions: MTCC 724, 24 h
[26] = test system: Aspergillus flavus; assay: Antifungal activity against Aspergillus flavus MTCC 873 after 48 hrs by microdilution method; format: functional

Molecule | zone of inhibition at 50 µg/mL [1] [mm] | MBC [2] [µg/mL] | IC50 [3] [µg/mL] | MIC [4] [µg/mL] | zone of inhibition at 100 µg/mL [5] [mm] | zone of inhibition at 50 µg/mL [6] [mm] | zone of inhibition at 100 µg/mL [7] [mm] | MFC ([8]; MTCC 873, 24 h) [µg/mL] | MBC [12] [µg/mL] | zone of inhibition at 100 µg/mL [13] [mm] | zone of inhibition at 50 µg/mL [15] [mm] | MBC [17] [µg/mL] | MIC [18] [µg/mL] | zone of inhibition at 50 µg/mL [19] [mm] | MBC [20] [µg/mL] | zone of inhibition at 100 µg/mL [21] [mm] | zone of inhibition at 50 µg/mL [22] [mm] | zone of inhibition at 100 µg/mL [23] [mm] | MIC [24] [µg/mL] | MIC [25] [µg/mL] | other results
CCOC(=O)c1c(-c2ccccc2)nn(-c2ccccc2)c1Cn1cnc2cc([N+](=O)[O-])ccc21 | 5 | 180 (≈ 385 µM) | 30 (≈ 64.2 µM) | 25 (≈ 53.5 µM) | 11 | 6 | 10 | 290 (≈ 620 µM) | 200 (≈ 428 µM) | 12 | 6 | 190 (≈ 406 µM) | 25 (≈ 53.5 µM) | 5 | 185 (≈ 396 µM) | 18 | 8 | 10 | 35 (≈ 74.9 µM) | 25 (≈ 53.5 µM) | MIC ([9]; MTCC 281, 48 h): 65 µg/mL (≈ 139 µM); zone of inhibition at 100 µg/mL [10]: 10 mm; MFC ([11]; MTCC 281, 24 h): 280 µg/mL (≈ 599 µM); zone of inhibition at 50 µg/mL [14]: 6 mm; IC50 [16]: 30 µg/mL (≈ 64.2 µM); MIC ([26]; MTCC 873, 48 h): 55 µg/mL (≈ 118 µM)
CCOC(=O)c1c(-c2ccccc2)nn(-c2ccccc2)c1COc1cc(OC)c(C=O)c(OC)c1 | 14 | 160 (≈ 329 µM) | 40 (≈ 82.2 µM) | 20 (≈ 41.1 µM) | 19 | 10 | 11 | 215 (≈ 442 µM) | 200 (≈ 411 µM) | 10 | 8 | 200 (≈ 411 µM) | 40 (≈ 82.2 µM) | 6 | 150 (≈ 308 µM) | 30 | 15 | 10 | 40 (≈ 82.2 µM) | 25 (≈ 51.4 µM) | MIC ([9]; MTCC 281, 48 h): 45 µg/mL (≈ 92.5 µM); zone of inhibition at 100 µg/mL [10]: 12 mm; MFC ([11]; MTCC 281, 24 h): 190 µg/mL (≈ 391 µM); zone of inhibition at 50 µg/mL [14]: 10 mm; IC50 [16]: 35 µg/mL (≈ 71.9 µM); MIC ([26]; MTCC 873, 48 h): 50 µg/mL (≈ 103 µM)
CCOC(=O)c1c(-c2ccccc2)nn(-c2ccccc2)c1COc1ccccc1C=O | 10 | 250 (≈ 586 µM) | 40 (≈ 93.8 µM) | 85 (≈ 199 µM) | 9 | 6 | 10 | 270 (≈ 633 µM) | 250 (≈ 586 µM) | 12 | 2 | 220 (≈ 516 µM) | 55 (≈ 129 µM) | 4 | 260 (≈ 610 µM) | 8 | 3 | 16 | 45 (≈ 106 µM) | 65 (≈ 152 µM) | MIC ([9]; MTCC 281, 48 h): 50 µg/mL (≈ 117 µM); zone of inhibition at 100 µg/mL [10]: 5 mm; MFC ([11]; MTCC 281, 24 h): 225 µg/mL (≈ 528 µM); zone of inhibition at 50 µg/mL [14]: 10 mm; IC50 [16]: 40 µg/mL (≈ 93.8 µM); MIC ([26]; MTCC 873, 48 h): 50 µg/mL (≈ 117 µM)
CN(C)[C@@H]1C(O)=C(C(N)=O)C(=O)[C@@]2(O)C(O)=C3C(=O)c4c(O)cccc4[C@@](C)(O)[C@H]3C[C@@H]12 [TETRACYCLINE] |  | 120 (≈ 270 µM) |  | 8 (≈ 18 µM) | 20 | 12 |  |  | 120 (≈ 270 µM) | 20 | 10 | 120 (≈ 270 µM) | 10 (≈ 22.5 µM) | 10 | 120 (≈ 270 µM) | 30 | 18 | 22 | 4 (≈ 9 µM) | 12 (≈ 27 µM) | 
NYSTATIN |  |  |  |  |  |  |  |  |  |  |  |  |  |  |  |  |  |  |  |  | MFC [8]: 100 µg/mL; MIC [9]: 10 µg/mL; inhibition zone (IZ) [10]: 20 mm; MFC [11]: 100 µg/mL; inhibition zone (IZ) [14]: 16 mm; MIC [26]: 8 µg/mL

Source: ChEMBL document CHEMBL3603774, “Novel 5-functionalized-pyrazoles: Synthesis, characterization and pharmacological screening” (Bioorg Med Chem Lett, 2015)
